Entries after “also recorded” stand apart in the source; their conditions may differ.
Key:
[1] = system: 15% E coli NfsA-expressing H1299 xenografts; assay: Tumour growth delay, 15% E coli NfsA-expressing H1299 xenografts; type: in vivo, NIH-III mice; settings: for tumour growth delay: mixed HCT116 and H1299 xenografts, 15% E coli NfsA cells, single (or BID) intraperitoneal dose
Experimental: (§1) Animals weighed 18-25 g at the time of tumour inoculation. Tumours were grown subcutaneously on the right flank of mice by inoculating cells grown in tissue culture (1×10^7 cells in 100 uL serum free α-MEM). Tumour sizes were monitored three times weekly using electronic callipers and treatments were initiated once tumour diameter reached ≥7 mm.
(§2) Tumour bearing mice were randomised into the appropriate treatment groups and tumour size and body weight recorded. Test compounds were formulated on the day of the experiment and kept in foil-wrapped tubes out of direct fluorescent light. If recruitment of animals occurred over multiple days, the drug stocks were aliquoted into tubes and frozen once at […] until required. Mice were treated with a single (or BID) dose of prodrug by intraperitoneal injection and thereafter tumour size and body weight was monitored every second day. Tumour volume was calculated as π (l×w×w)/6, where l is the major axis and w is the perpendicular minor axis. Animals were culled when they had reached the appropriate survival endpoint or when body weight loss exceeded 20% of the pre-treatment value.

[2] = system: 15% E coli NfsA-expressing HCT116 xenografts; assay: Tumour growth delay, 15% E coli NfsA-expressing HCT116 xenografts; type: in vivo, NIH-III mice; settings: single dose; 10, 22 and 60 at 1000, 422 and 1330 umol/kg
Experimental: as §1, §2

[3] = system: bacterial nitroreductases from the NfsA and NfsB families; assay: GFP SOS assay with nitroreductase over-expression library; type: cell-based, E. coli strain SOS-R4; settings: single and poly mutated variants of NfsA_Ec, single-mutated variant of NfsA_Bs
[4] = system: HCT116, H460, H1299 and SiHa wild type cancer cell lines; assay: Oxic versus anoxic low cell density IC50 assay, wild type cancer cell lines; type: cell-based, human; settings: 4 h anoxia during prodrug exposure versus oxic
Experimental: (§3) Compounds were subjected to testing, including low-cell density cytotoxicity assay. Cells (500 cells/well) were seeded in 96-well plates and exposed to prodrug for 4 h, washed, then left to grow for a further 5 days. The SRB assay was employed to determine IC50 values (concentration of prodrug required to inhibit proliferation by 50%). Parental HCT116 cells (HCT116 is a cell line derived from human colon cancer) and cells expressing the example nitroreductase gene nfsA from Escherichia coli were evaluated head-to-head. Parental H1299 cells (H1299 is a cell line derived from lung cancer) and cells expressing the example nitroreductase gene nfsA from Escherichia coli were evaluated head-to-head. Parental HCT116 cells and cells expressing human AKR1C3 were evaluated head-to-head. Parental H1299 cells and cells expressing human AKR1C3 were evaluated head-to-head. In a variation of these assays test compounds were assessed for their ability to give hypoxia-selective cell killing. Here wild type HCT116, H460 (H460 is a cell line derived from lung cancer), H1299 and SiHa cells (SiHa is a cell line derived from cervical cancer) were used in addition to HCT116 cells engineered to over express cytochrome P450 reductase (HCT116 POR), a human one-electron nitroreductase. Low-cell density cytotoxicity assays were performed as above under oxic conditions and compared to experiments where cells were shown 4 h of anoxia during the prodrug exposure period, before being washed free of prodrug and then left to grow for a further 5 days under oxic conditions, as above.

[5] = system: HCT116 POR cell line (over-expressing Cytochrome P450 reductase); assay: Oxic versus anoxic low cell density IC50 assay, HCT116 POR cells; type: cell-based, human; settings: HCT116 POR cell line compared with wild type
Experimental: as §3, with “Low-cell density cytotoxicity assays were performed as above under oxic conditions and compared to experiments where cells were shown 4 h of anoxia during the prodrug exposure period, before being washed free of prodrug and then left to grow for a further 5 days under oxic conditions, as above.” left out

[6] = system: HCT116 MCLs over-expressing AKR1C3; assay: Multicellular layer (MCL) clonogenic assay, HCT116 wild type versus AKR1C3 over-expressing MCLs; type: cell-based, human
Experimental: (§4) In parallel, a three dimensional high-cell density multi-cellular layer (MCL) clonogenic assay was performed. 1×10^6 cells of either 100% HCT-116^WT or containing 97% WT with a minor 3% HCT-116^NTR cell population were seeded into a collagen-coated Teflon microporous membrane and left to grow for 3 days. MCLs were then exposed to prodrug for 5 h. After treatment, MCLs were enzyme dissociated, diluted in fresh medium and plated to determine clonogenic survival. To discriminate clonogenic activator (NTR+) from target (NTR−) colonies, cells were plated in non-selective medium (total cells) and medium containing 1 μM puromycin (activator cells). Colonies were grown for 10 days before staining. Colonies containing >50 cells were counted. A variation of this assay was also used to assess for evidence of AKR1C3-dependent cytotoxicity. Here either 100% HCT-116W^T or 100% HCT-116^AKR1C3 cells were seeded to provide MCLs that were then exposed to prodrug.

[7] = system: HCT116 MCLs with 3% E coli NfsA-expressing cells; assay: MCL clonogenic bystander assay, HCT116 MCLs seeded with 3% E coli NfsA-expressing cells; type: cell-based, human; settings: 97% wild type HCT116, 3% E coli NfsA-expressing cells
Experimental: as §4

[8] = system: H1299 cells engineered to over-express human aldo-ketoreductase 1C3 (AKR1C3); assay: Low cell density IC50 (SRB) assay, H1299 wild type versus AKR1C3 over-expressing cells; type: cell-based; settings: 4 h exposure
Experimental: as §3

[9] = system: wild type SiHa tumour xenografts; assay: Excision assay with and without radiation, wild type SiHa tumour xenografts; type: in vivo, NIH-III nude mice; settings: for cell killing in combination with radiation versus radiation alone: HCT116 POR and wild type SiHa xenografts, 10 or 15Gy, single (or BID) intraperitoneal dose; for hypoxic cell kill in vivo (log cell kill): with or without 10Gy radiation, 22 at 422, 300 and 11 at 1330, 23 at 1000 umol/kg
Experimental: (§5) Tumours were grown subcutaneously in the flank of NIH-III mice by inoculating cells grown in tissue culture. Tumours were monitored using electronic calipers. When tumours reached treatment size, mice were randomized to treatment groups (five to seven per group). Compounds were given as single (or BID) intraperitoneal doses alone or 5 min after whole body irradiation (^60Co source). Eighteen hours after treatment, tumours were excised, weighed, minced, dissociated enzymatically, and plated to determine clonogenicity. Clonogens/gram of tissue were calculated relative to controls and effects of treatment were tested for significance (ANOVA with Dunnett's).

[10] = system: HCT116 cells engineered to over-express human aldo-ketoreductase 1C3 (AKR1C3); assay: Low cell density IC50 (SRB) assay, HCT116 wild type versus AKR1C3 over-expressing cells; type: cell-based; settings: 4 h exposure
Experimental: as §3

[11] = system: H1299 cells engineered to over-express E coli NfsA; assay: Low cell density IC50 (SRB) assay, H1299 wild type versus E coli NfsA over-expressing cells; type: cell-based, human
Experimental: as §3

[12] = system: bacterial nitroreductases from the NfsA and NfsB families; assay: GFP SOS assay with nitroreductase over-expression library; type: cell-based, E. coli strain SOS-R4; settings: 55 candidate nitroreductase library, 6 h challenge
Description: The method employed the over-expression of a candidate nitroreductase gene from plasmid pUCX in an SOS reporter strain, as first described in Prosser et al., 2010, Biochem Pharmacol 79, 678-687. In order to enhance the sensitivity of the SOS reporter system, an sfiA::GFP reporter construct was integrated into a CDF-based plasmid (which contains a compatible origin of replication with pUCX) to give the pANODuet reporter plasmid for GFP screening. In addition, nfsA, nfsB, azoR, and nemA genes were deleted to minimise background metabolism, and the tolC gene deleted to minimise efflux of test compounds; this strain was designated SOS-R3. Further improvements were obtained by deleting the mdaB, ycaK, and yieF genes to minimise background metabolism, and by introducing transcriptional terminators to the pANODUET reporter plasmid. This final reporter strain was designated SOS-R4.
Stored glycerols of the 55-membered nitroreductase library in SOS-R4 were thawed and used to inoculate overnight cultures (Lysogeny Broth (LB) amended with 100 μg ml^−1 Ampicillin, 50 μg ml^−1 Spectinomycin, 0.4% glucose) that were incubated at 30° C., 200 rpm for 16 h. The next morning the GFP-SOS assay was commenced by inoculation of 195 μl fresh assay media (LB+100 μg ml^−1 Ampicillin, 50 μg ml^−1 Spectinomycin, 0.2% glucose, 50 μM IPTG) with 15 μl of overnight culture in individual wells of a 96-well plate. Plates were incubated at 30° C., 200 rpm for 2.5 h (pre-challenge period), following which cultures were diluted 1:2 by splitting 50:50 into fresh assay media (+DMSO to 0.5% final concentration) and fresh challenge media (assay media+drug to desired concentration, DMSO to 0.5% final concentration) to final volumes of 80 μl apiece in duplicate on a 384-well plate. Plates were incubated at 30° C., 200 rpm for 6 h (challenge period). GFP expression was determined at excitation 488 nm/emission 509 nm. Turbidity was determined by OD600 and fluorescence data from any replicates not found to be within 15% of the median culture turbidity were discarded.

[13] = system: HCT116 cells engineered to over-express E coli NfsA; assay: Low cell density IC50 (SRB) assay, HCT116 wild type versus E coli NfsA over-expressing cells; type: cell-based, human
Experimental: as §3

[14] = system: HCT116 tumour xenografts over-expressing Cytochrome P450 reductase; assay: Excision assay with and without radiation, HCT116 POR tumour xenografts; type: in vivo, mice; settings: 1330 μmol/kg, with or without 15Gy radiation
Experimental: as §5

[15] = single dose, 10, 22, 60 and 11 at 750, 422, 1330 and 1330 umol/kg

Structure (SMILES)	tumour growth delay [1]	E coli NfsA mediated anti-tumour efficacy (mean tumour volume) [1, 15]	E coli NfsA mediated anti-tumour efficacy (mean tumour volume) [2]	E coli NfsA mediated anti-tumour efficacy (mean tumour volume) ([1]; 500 umol/kg twice daily (BID), total 1000 umol/kg)	activity with mutated nitroreductase variants [3]	hypoxia-dependent cytotoxicity [4]	Hypoxic Cytotoxicity Ratios (HCR) [5]	AKR1C3-dependent clonogenic cell kill in MCLs [6]	bystander cell killing in MCLs [7]	AKR1C3-mediated cytotoxicity (IC50 wild type versus AKR1C3) [8]	cell killing in combination with radiation versus radiation alone [9]	hypoxic cell kill in vivo (log cell kill) [9]	AKR1C3-mediated cytotoxicity (IC50 wild type versus AKR1C3) [10]	E coli NfsA-mediated cytotoxicity (IC50 wild type versus NfsA) [11]	metabolism by bacterial nitroreductases (SOS response) [12]	E coli NfsA-mediated cytotoxicity (IC50 wild type versus NfsA) [13]	hypoxic cell kill in vivo (log cell kill) [14]
CS(=O)(=O)OCCN(CCBr)c1ccc([N+](=O)[O-])cc1C(=O)NCCOP(=O)(O)O [compound 60, 2-((2-bromoethyl)(4-nitro-2-((2-(phosphonooxy)ethyl)carbamoyl)phenyl)amino)ethyl methanesulfonate]	profound tumour growth delay	display significant E coli NfsA mediated anti-tumour efficacy	display significant E coli NfsA mediated anti-tumour efficacy	–	–	–	–	–	–	–	–	–	–	–	–	–	–
CN1CCN(C(=O)c2cc(N(CCBr)CCBr)c(S(C)(=O)=O)cc2[N+](=O)[O-])CC1 [compound 22, (5-(bis(2-bromoethyl)amino)-4-(methylsulfonyl)-2-nitrophenyl)(4-methylpiperazin-1-yl)methanone]	profound tumour growth delay	display significant E coli NfsA mediated anti-tumour efficacy	display significant E coli NfsA mediated anti-tumour efficacy	display significant E coli NfsA mediated anti-tumour efficacy	demonstrated	increased cytotoxicity in cells under hypoxia	Larger HCRs; also recorded: The degree of this effect was increased	do not cause AKR1C3-dependant cytotoxicity	display evidence of metabolism by the 3% E coli NfsA-expressing cells with bystander cell killing of the 97% non-expressing neighbour cells	less susceptible to AKR1C3-mediated cytotoxicity than PR-104A	increased cell killing above what could be achieved with radiation alone	significant hypoxic cell kill in vivo	less susceptible to AKR1C3-mediated cytotoxicity than PR-104A	produce E coli NfsA-mediated cytotoxicity	substrates for multiple wild type and mutant bacterial nitroreductases from the NfsA and NfsB families	produce E coli NfsA-mediated cytotoxicity	–
CN(CCOP(=O)(O)O)C(=O)c1cc(N(CCBr)CCBr)c(S(C)(=O)=O)cc1[N+](=O)[O-] [compound 10, 2-(5-(bis(2-bromoethyl)amino)-N-methyl-4-(methylsulfonyl)-2-nitrobenzamido)ethyl dihydrogen phosphate]	profound tumour growth delay	display significant E coli NfsA mediated anti-tumour efficacy	display significant E coli NfsA mediated anti-tumour efficacy	–	–	–	–	–	–	–	–	–	–	–	–	–	–
CS(=O)(=O)c1cc([N+](=O)[O-])c(C(=O)NCCOP(=O)(O)O)cc1N(CCBr)CCBr [compound 300, 2-(5-(bis(2-bromoethyl)amino)-4-(methylsulfonyl)-2-nitrobenzamido)ethyl dihydrogen phosphate]	–	–	–	–	–	–	–	–	–	–	increased cell killing above what could be achieved with radiation alone	significant hypoxic cell kill in vivo	–	–	–	–	significant hypoxic cell kill in vivo
CN(CCO)C(=O)c1cc(N(CCBr)CCBr)c(S(C)(=O)=O)cc1[N+](=O)[O-] [compound 14, 5-(bis(2-bromoethyl)amino)-N-(2-hydroxyethyl)-N-methyl-4-(methylsulfonyl)-2-nitrobenzamide]	–	–	–	–	demonstrated	increased cytotoxicity in cells under hypoxia	Larger HCRs; also recorded: The degree of this effect was increased	do not cause AKR1C3-dependant cytotoxicity	display evidence of metabolism by the 3% E coli NfsA-expressing cells with bystander cell killing of the 97% non-expressing neighbour cells	–	–	–	less susceptible to AKR1C3-mediated cytotoxicity than PR-104A	produce E coli NfsA-mediated cytotoxicity	substrates for multiple wild type and mutant bacterial nitroreductases from the NfsA and NfsB families	produce E coli NfsA-mediated cytotoxicity	–

Reference: patent publication US10202408B2, “Prodrugs and methods of use thereof” (Health Innovation Ventures B.V., priority 2012, dated 2019)
